From PubChem BioAssay AID2060883 (Molecular Pharmacology Branch, DTP, NCI, 2025)
pIC50: −log10 of the molar value. Values belong to the compound of their own block, whether it stands above or below them.

Test system: 843782-103-R-J1-PDC complex spheroid viability
Assay: Anticancer human tumor 843782-103-R-J1-PDC patient-derived lung adenocarcinoma cell line growth inhibition [RAS]
Conditions: for pIC50: curve of first compound; for viability, T/C: stronger effect = lower value
Text: RAS pathway inhibitors in Combinations in Complex Spheroids
A high-throughput screen of multi-cell type tumor spheroids was designed to identify active combinations of RAS pathway inhibitors and targeted small molecules. Complex spheroids include a stromal component modeled by human endothelial cells (HUVEC) and fibroblasts modeled by human mesenchymal stem cells (MSCs). The concentration ranges selected for each drug and investigational agent were based upon clinically achievable concentrations if the clinical Cmax of the agent was known.
Compounds. The drugs and investigational agents: abemaciclib (NSC768073), cobimetinib (NSC768068), divarasib (GDC6063, NSC841802), docetaxel (NSC628503), GDC-1971 (RLY-1971, NSC841576), gemcitabine (NSC613327), inavolisib (NSC800729), ipatasertib (NSC767898), KB-0742 (NSC834161), MRTX-1133 (NSC836407), osimertinib (NSC779217), RMC-4630 (NSC839698), RMC-6236 (NSC851965), RMC-6291 (NSC852671), Ro-3306 (NSC812927), sapanisertib (NSC764658), SN-38 (NSC673596), staurosporine (NSC755774), SY5609 (NSC837396), and tovorafenib (DAY101, NSC766906), were obtained from the National Cancer Institute (NCI) Developmental Therapeutics Program Chemical Repository. The FDA-approved anticancer drug set is available from the NCI Developmental Therapeutics Program. […] The stock solutions were prepared in dimethyl sulfoxide (DMSO, Sigma-Aldrich, St. Louis, MO, cat. D2650) at 800-fold the tested concentration and stored at -70 degrees C prior to their use. All drugs and investigational agents were tested over a range starting from a high concentration at or near the clinical Cmax and decreasing in half-log increments. If the clinical Cmax for an agent had not been determined, the highest concentration tested was 10 microM.
Cell Culture. All cells were maintained in an incubator at 37 degrees C and 5% CO2 with 95% humidity. The PDC lines were cultured according to standard operating procedures established by the NCI PDMR. All PDCs were thawed and cultured in Matrigel-coated flasks prepared with a working solution of 1X Ham's F-12 nutrient mix, without supplementation (Invitrogen, Waltham, MA, cat. 11765054), 100 U/mL penicillin-streptomycin (Invitrogen, cat. 15140122), and 2.5% Matrigel (Corning Inc., Corning, NY, cat. 354248) for the first three passages. The 362531-283-R-J2-PDC and 782815-120-R-J1-PDC lines were cultured in 6C/Colon 1B media, which includes advanced DMEM/F-12 (Thermo Fisher Scientific, cat. 12634028), 10 mM HEPES (Thermo Fisher Scientific, cat. 15630080), 1X GlutaMAX supplement (Thermo Fisher Scientific, cat. 35050061), 0.1 mg/mL primocin (InvivoGen, San Diego, CA, cat. ant-pm-2), 10% defined fetal bovine serum, heat inactivated (HyClone Laboratories Inc., Logan, UT, cat. SH30070.03HI), 50% L-WRN conditioned media (ATCC, cat. CRL-3276), 1.25 mM N-Acetyl-L-cysteine (Sigma-Aldrich, cat. A9165), 10 mM nicotinamide (Sigma-Aldrich, cat. N0636), 1X B-27 supplement (Thermo Fisher Scientific, cat. 17504044), 1X N-2 supplement (Thermo Fisher Scientific, cat. 17502048), 50 ng/mL human EGF (Thermo Fisher Scientific, cat. PHG0311), and 10 microM Y-27632 dihydrochloride (Tocris Bioscience, cat. 1254). The K12877-001-R-J1-PDC line was cultured in 6I media, which includes all 6C/Colon 1B media plus 10 ng/mL human FGF-10 (PeproTech, cat. 100-26), 1 ng/mL human FGF-2 (PeproTech, cat. 100-18B), 1 µM prostaglandin E2 (Tocris Bioscience, cat. 2296), […] hydrocortisone (Sigma-Aldrich, cat. H4001), and […] bovine insulin (Sigma-Aldrich, cat. I6634). The K86415-001-R-J1-PDC line was cultured in 6D media, which includes all 6C/Colon 1B media components minus the L-WRN conditioned media. The 485176-168-R4-J1-PDC was cultured in PANC media, which includes all 6C/Colon 1B media plus 100 ng/mL human FGF-10 (PeproTech, cat. 100-26), 500 nM SB-431542 (Selleckchem, cat. S1067), and 10 nM gastrin (Tocris Bioscience, cat. 3006). […]

[1] = second compound 0.0316 µM, first compound 0.0316 µM
[2] = second compound 0.0316 µM, first compound 0.1 µM
[3] = second compound 0.1 µM, first compound 0.0316 µM
[4] = second compound 0.1 µM, first compound 0.1 µM
[5] = second compound 0.316 µM, first compound 0.0316 µM
[6] = second compound 0.316 µM, first compound 0.1 µM
[7] = second compound 1 µM, first compound 0.0316 µM
[8] = second compound 1 µM, first compound 0.1 µM
[9] = second compound 3.16 µM, first compound 0.0316 µM
[10] = second compound 3.16 µM, first compound 0.1 µM
[11] = second compound 10 µM, first compound 0.0316 µM
[12] = second compound 10 µM, first compound 0.1 µM
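Further: viability read after seven days of compound exposure.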

pIC50 (second compound 0.0316 µM): 7.42
pIC50 (second compound 0.1 µM): 7.61
pIC50 (second compound 0.316 µM): 7.68
pIC50 (second compound 1 µM): 7.72
pIC50 (second compound 3.16 µM): 8.18
pIC50 (second compound 10 µM): 9.10
SMILES: CC(C)n1nc(-c2ccc3oc(N)nc3c2)c2c(N)ncnc21 + C#Cc1c(F)ccc2cc(O)cc(-c3ncc4c(N5CC6CCC(C5)N6)nc(OCC56CCCN5CC(F)C6)nc4c3F)c12
viability, T/C (second compound 0.0316 µM, first compound 0.000316 µM): 108%
viability, T/C (second compound 0.0316 µM, first compound 0.001 µM): 93.9%
viability, T/C (second compound 0.0316 µM, first compound 0.00316 µM): 97.5%
viability, T/C (second compound 0.0316 µM, first compound 0.01 µM): 70.8%
viability, T/C [1]: 55.1%
viability, T/C [2]: 31.2%
viability, T/C (second compound 0.1 µM, first compound 0.000316 µM): 105%
viability, T/C (second compound 0.1 µM, first compound 0.001 µM): 95.7%
viability, T/C (second compound 0.1 µM, first compound 0.00316 µM): 93.8%
viability, T/C (second compound 0.1 µM, first compound 0.01 µM): 72.5%
viability, T/C [3]: 42.8%
viability, T/C [4]: 29.8%
viability, T/C (second compound 0.316 µM, first compound 0.000316 µM): 101%
viability, T/C (second compound 0.316 µM, first compound 0.001 µM): 91.2%
viability, T/C (second compound 0.316 µM, first compound 0.00316 µM): 91.2%
viability, T/C (second compound 0.316 µM, first compound 0.01 µM): 66.3%
viability, T/C [5]: 40.6%
viability, T/C [6]: 26%
viability, T/C (second compound 1 µM, first compound 0.000316 µM): 99.7%
viability, T/C (second compound 1 µM, first compound 0.001 µM): 87.8%
viability, T/C (second compound 1 µM, first compound 0.00316 µM): 81.7%
viability, T/C (second compound 1 µM, first compound 0.01 µM): 62.1%
viability, T/C [7]: 39.6%
viability, T/C [8]: 21.8%
viability, T/C (second compound 3.16 µM, first compound 0.000316 µM): 93%
viability, T/C (second compound 3.16 µM, first compound 0.001 µM): 70%
viability, T/C (second compound 3.16 µM, first compound 0.00316 µM): 71.8%
viability, T/C (second compound 3.16 µM, first compound 0.01 µM): 39.1%
viability, T/C [9]: 25.3%
viability, T/C [10]: 19.4%
viability, T/C (second compound 10 µM, first compound 0.000316 µM): 63.3%
viability, T/C (second compound 10 µM, first compound 0.001 µM): 41%
viability, T/C (second compound 10 µM, first compound 0.00316 µM): 38.5%
viability, T/C (second compound 10 µM, first compound 0.01 µM): 28%
viability, T/C [11]: 18.8%
viability, T/C [12]: 10.6%

pIC50 (second compound 0.0316 µM): 6.34
pIC50 (second compound 0.1 µM): 6.43
pIC50 (second compound 0.316 µM): 6.53
pIC50 (second compound 1 µM): 6.76
pIC50 (second compound 3.16 µM): 7.24
pIC50 (second compound 10 µM): > 7.50
SMILES: CC(Nc1ccc2c(c1)OCCn1cc(N3C(=O)OCC3C(F)F)nc1-2)C(N)=O (centres undefined) + C#Cc1c(F)ccc2cc(O)cc(-c3ncc4c(N5CC6CCC(C5)N6)nc(OCC56CCCN5CC(F)C6)nc4c3F)c12
viability, T/C [1]: 96.3%
viability, T/C [2]: 73.7%
viability, T/C (second compound 0.0316 µM, first compound 0.316 µM): 59.3%
viability, T/C (second compound 0.0316 µM, first compound 1 µM): 35.5%
viability, T/C (second compound 0.0316 µM, first compound 3.16 µM): 24.5%
viability, T/C (second compound 0.0316 µM, first compound 10 µM): 16.1%
viability, T/C [3]: 96.4%
viability, T/C [4]: 76.6%
viability, T/C (second compound 0.1 µM, first compound 0.316 µM): 50%
viability, T/C (second compound 0.1 µM, first compound 1 µM): 36.3%
viability, T/C (second compound 0.1 µM, first compound 3.16 µM): 22.8%
viability, T/C (second compound 0.1 µM, first compound 10 µM): 15%
viability, T/C [5]: 91.2%
viability, T/C [6]: 72.9%
viability, T/C (second compound 0.316 µM, first compound 0.316 µM): 46.2%
viability, T/C (second compound 0.316 µM, first compound 1 µM): 32.6%
viability, T/C (second compound 0.316 µM, first compound 3.16 µM): 23.2%
viability, T/C (second compound 0.316 µM, first compound 10 µM): 15%
viability, T/C [7]: 89.9%
viability, T/C [8]: 59.5%
viability, T/C (second compound 1 µM, first compound 0.316 µM): 39.6%
viability, T/C (second compound 1 µM, first compound 1 µM): 25.1%
viability, T/C (second compound 1 µM, first compound 3.16 µM): 20%
viability, T/C (second compound 1 µM, first compound 10 µM): 10.9%
viability, T/C [9]: 63%
viability, T/C [10]: 36.7%
viability, T/C (second compound 3.16 µM, first compound 0.316 µM): 26.6%
viability, T/C (second compound 3.16 µM, first compound 1 µM): 18.2%
viability, T/C (second compound 3.16 µM, first compound 3.16 µM): 12.2%
viability, T/C (second compound 3.16 µM, first compound 10 µM): 8.25%
viability, T/C [11]: 41.2%
viability, T/C [12]: 22.2%
viability, T/C (second compound 10 µM, first compound 0.316 µM): 21.3%
viability, T/C (second compound 10 µM, first compound 1 µM): 15.4%
viability, T/C (second compound 10 µM, first compound 3.16 µM): 8.8%
viability, T/C (second compound 10 µM, first compound 10 µM): 3.28%
